Here are results for 18 compounds from US20090012148A1, “REDUCING CELLULAR CHOLESTEROL LEVELS AND/OR TREATING OR PREVENTING PHOSPHOLIPIDOSIS” (priority 2005, published 2009).

In assay [1] the test system is CT60 cells. As to the kind of experiment: Gas chromatography cholesterol assay. Format: cell-based, Chinese hamster. Conditions: 10 μM, FC = free cholesterol. As for the experimental part: The cholesterol lowering effect of the 14 hit compounds identified by filipin labeling was measured by an alternative chemical method that involved GC separation of solvent-extracted cellular lipids (43). CT60 cells were treated with compounds at 10 μM under the same conditions as in the screening assays. Since the GC assay estimates FC content per cell, the values are compared to the average filipin intensity assay (Table 1).
CT60 or CT43 cells were plated on day 1 in 6-well plates. Hit compounds were added to the cells at 10 μM concentration. Cells were incubated for 24 h. Cellular lipids were extracted with hexane: iso-propyl alcohol (3:2 v/v). The lipid extracts were dried and re-suspended in hexane followed by separation on gas chromatograph using β-sitosterol as an internal standard.
Procedure: CT60 cells were plated in 6-well plates in Ham's F-12/1.176 g/L sodium bicarbonate/2 g/L glucose/10% FBS. Following 24 h incubation, cells were treated with 10 μM of each compounds, medium being replaced with Ham's F-12/1.176 g/L sodium bicarbonate/2 g/L glucose/5.5% FBS/20 mM HEPES. The change of the medium in the wells was performed to have experimental conditions similar to those used for the screening once chemical compounds were added to the cells. After 18 h treatment with compounds, cells were washed twice with Hank's balanced salt solutions (HBSS). Cellular lipids were extracted with hexane/isopropyl alcohol (3:2 v/v) (43) dried and resuspended in hexane followed by separation on a gas chromatograph (GC) using following conditions. A Hewlett Packard GC model HP 5890 series II (Palo Alto, Calif.) equipped with a flame ionization detector, split-splitless injector, and 15 m×0.53 mm HP-5 capillary column coated with […] film thickness of 5% phenyl methyl siloxane was used to separate free cholesterol. The injection temperature was maintained at 255° C. and oven temperature was held isothermally at 260° C. using helium as a mobile phase at 30 mL/min flow rate. The free cholesterol (FC) was quantified using beta-sitosterol as internal standard to correct for lipid losses during extraction.

Assay [2] deals with CT60 cells. As to the kind of experiment: Filipin binding assay, average filipin intensity and staining pattern. Type of assay: cell-based, Chinese hamster. Conditions: 10 μM; for Average filipin intensity Fraction of control: 14 hit compounds from primary library. On the procedure: We developed assays for correction of the NPC phenotype in CHO cell lines using filipin, which binds to non-esterified cholesterol and has been used to visualize the free cholesterol content in NPC cells. The initial screens were carried out in CT60 cells, which express a mutated hamster NPC1 protein and a gain of function mutation in SCAP (42). These cells cannot traffic LDL-derived cholesterol out of late endosomes, and large amounts of cholesterol accumulate in LSO compartments. FIGS. 1A-B show images of filipin staining in a control CHO cell line, TRVb1 (45) (FIG. 1A) and in CT60 cells (FIG. 1B). It can be seen that the CT60 cells show much more filipin staining than control cells and that the fluorescence in CT60 cells is concentrated in peri-nuclear organelles.
For screening, images were acquired using a Discovery-1 automated microscopy system with a 10× objective and corrected for background and shading as described in Methods. Two thresholds were set for filipin staining, a low threshold to include all cell areas, and a high threshold for the strong filipin staining in the peri-nuclear LSOs. The threshold values were set for each plate from analysis of 64 images in 32 wells of untreated CT60 cells. […] In developing the low threshold, we compared the outlines based on the thresholded cell images with transmitted light images, and the thresholds provided good agreement with the transmitted light cell boundaries.
As a simple measure of the intensity of filipin staining, we measured the filipin intensity per pixel above the threshold. The conditions of filipin labeling (time and concentration) were adjusted to optimize the discrimination between the CT60 cells and control TRVb1 cells. […] The quality of the assay for screening is expressed in terms of a statistical parameter Z′(46):
Using the above screening technique, we screened a library of 14,956 compounds added to cells for 16 hours at a final concentration of 10 μM, using a single well for each compound. Prior to application of the compounds, cells were grown in normal tissue culture medium containing 10% FBS, so the LSOs were filled with cholesterol (FIG. 1B). The cells were then imaged and analyzed using the average filipin intensity assay and the LSO compartment assay. In general, the two analyses identified similar compounds that reduced the filipin labeling.
Compound addition: The library compounds were formatted for screening in the Rockefeller University High Throughput Screening Facility. Cells were treated with the compounds from the chemical library one day after plating. We added […] of each compound (5 mM stock in DMSO) to 25 μl of screening Medium S composed of medium A supplemented with 1% FBS and 20 mM 4-(2-hydroxyethyl)-1-pipiperazine ethane sulphonic acid (HEPES) in Falcon 384-well V-bottomed polypropylene plates using a Packard MiniTrak™ robotic liquid handling system. To obtain ˜10 μM final concentration, 23 μl of the premixed compounds were dispensed into the plates containing cells and […] of culture medium A. For primary screening, 352 test compounds were added to each plate, and the remaining 32 wells were used as a control with only DMSO added. All plates were incubated with compounds for 16 h at 37° C. Plates were then washed three times with phosphate buffered saline pH 7.4 (PBS) using a Bio-Tek Elx405 plate washer (Bio-Tek Instruments Inc., Winooski, Vt.). For each wash cycle, […] of PBS was dispensed followed by aspiration with a residual volume of 16 μl per well. Finally, cells were fixed with 1.5% PFA in PBS for 20 min at room temperature, followed by 3 more washes with PBS.
Fluorescence labeling. To the fixed cells, filipin was added at a final concentration of 50 μg/ml in PBS for 45 m at room temperature to label free cholesterol. Cells were finally washed three times with PBS, and images were acquired immediately after labeling. […]

For assay [3], the system named is normal human fibroblasts. As to the kind of experiment: Filipin LSO ratio assay on U18666A-treated normal human fibroblasts. Type of assay: cell-based. Conditions: 250 nM or 500 nM, 20 hours. On the procedure: FIG. 12 depicts the effect of 7 compounds (2-a-1, 2-a-3, 2-a-8, 2-a-9, 2-a-12, 2-a-13, 2-a-15) from the second library on U18666A-treated normal human fibroblasts. Normal human fibroblasts were plated in 384 well plates and grown in regular growth medium for 24 h, after which the cells were treated with compound U18666A (500 nM or 250 nM) in screening medium for 4 h. The cells were then further incubated overnight with hit compounds (10 μM) in the continued presence of U18666A. Finally, cells were washed three times with PBS, fixed with 1.5% PFA, washed with PBS and stained with filipin. Images were acquired using the Discovery1 microscope at 10× magnification and analyzed for the LSO ratio. Solid horizontal lines are the mean for U18666A-treated cells at each concentration, and the dotted horizontal lines indicate −3 SD.
(§1) Normal human fibroblasts (GM5659E) were grown in MEM with 1% P/S and 10% FBS. For microscopy, fibroblasts were plated in normal growth medium on glass-bottomed 35 mm dishes or in 384-well plates.
Normalized values were obtained by dividing the values in the presence of each compound by the values obtained in presence of solvent control for each plate. Similar methods were used to analyze the effects of compounds on human fibroblasts treated with U18666A to induce cholesterol retention in LSOs. […]

For assay [4], the system named is normal human fibroblasts. As to the kind of experiment: Filipin staining of normal human fibroblasts. Format: cell-based. Conditions: data not shown. On the procedure: These cells show rearrangements that may indicate that cholesterol has been redirected to a different compartment or that the morphology of the LSOs themselves has been changed (compound 1-c-3, FIG. 4C).
as §1

“Also recorded” adds a separate entry of the source.

Consider `C=CCN1C(=O)C(=CC=Cc2ccc(N(C)C)cc2)SC1=S` [Compound 1-a-2], for which the “μg FC/μg Protein by GC Fraction of control” value in the assay on CT60 cells [1] was 1.15 ± 0.05 Fraction of control. In addition, the “Average filipin intensity Fraction of control” value in the assay on CT60 cells [2] is on record as 0.88 ± 0.04 Fraction of control.

Consider `CCN(CC)CCO[C@H]1CC[C@@]2(C)C(=CC[C@@H]3[C@@H]2CC[C@]2(C)C(=O)CC[C@@H]32)C1` [Compound U18666A], for which the “cholesterol accumulation by filipin staining and LSO compartment ratio” value in the assay with normal human fibroblasts [3] is “significant increase”.

Turning to `O=C(O)c1ccc(N2C(=O)C(=Cc3ccc(-c4ccc(Br)cc4)o3)C=C2c2ccccc2)cc1` [Compound 1-a-13], the “μg FC/μg Protein by GC Fraction of control” value in the assay on CT60 cells [1] is 1.54 ± 0.11 Fraction of control. Besides, in the assay with CT60 cells [2], the “Average filipin intensity Fraction of control” value is given as 0.97 ± 0.04 Fraction of control.

With `O=C1Nc2ccccc2C1=NNc1nc(N2CCCCC2)nc(N2CCCCC2)n1` [Compound 1-a-9], the “μg FC/μg Protein by GC Fraction of control” value in the assay on CT60 cells [1] is 0.86 ± 0.07 Fraction of control. In addition, the “Average filipin intensity Fraction of control” value with CT60 cells [2] was 0.99 ± 0.04 Fraction of control.

`CCOC(=O)c1sc(NC(=O)c2ccccc2C)nc1-c1ccccc1` [Compound 1-a-11]: the “μg FC/μg Protein by GC Fraction of control” value with CT60 cells [1] is listed as 0.82 ± 0.07 Fraction of control. Besides, the “Average filipin intensity Fraction of control” value in the assay on CT60 cells [2] is on record as 0.90 ± 0.04 Fraction of control.

On to `Cc1cc([N+](=O)[O-])ccc1NC(=O)CC1SC(=Nc2ccccc2)N(c2ccccc2)C1=O` (stereo not shown) [Compound 1-a-10], for which the “μg FC/μg Protein by GC Fraction of control” value in the assay with CT60 cells [1] was 1.23 ± 0.08 Fraction of control. Further, the “Average filipin intensity Fraction of control” value in the assay with CT60 cells [2] was 0.96 ± 0.04 Fraction of control.

For the compound `CN(C)c1cc(NN=Cc2cccs2)nc(N(C)C)n1` [Compound 1-a-12], in the assay with CT60 cells [1], the “μg FC/μg Protein by GC Fraction of control” value was 0.73 ± 0.03 Fraction of control. Further, in the assay with CT60 cells [2], the “Average filipin intensity Fraction of control” value is given as 0.91 ± 0.04 Fraction of control.

Regarding `O=C1C(=Cc2ccc(-c3ccc(Br)cc3)o2)C=C(c2ccccc2)N1c1ccc(O)cc1` [Compound 1-a-8], in the assay with CT60 cells [1], the “μg FC/μg Protein by GC Fraction of control” value was 1.31 ± 0.10 Fraction of control. In the assay with CT60 cells [2], the “Average filipin intensity Fraction of control” value is reported as 0.90 ± 0.04 Fraction of control.

For `O=C1C(=Cc2ccc(-c3cc(Cl)ccc3Cl)o2)C=C(c2ccccc2)N1c1ccc(O)cc1` [Compound 1-a-7], the “μg FC/μg Protein by GC Fraction of control” value with CT60 cells [1] was 1.04 ± 0.13 Fraction of control. In the assay on CT60 cells [2], the “Average filipin intensity Fraction of control” value is 0.89 ± 0.04 Fraction of control.

With `O=C1C(=Cc2ccc(-c3ccc(Cl)c(Cl)c3)o2)C=C(c2ccccc2)N1c1ccc(O)cc1` [Compound 1-a-5], in the assay on CT60 cells [1], the “μg FC/μg Protein by GC Fraction of control” value is listed as 1.18 ± 0.06 Fraction of control. Also, the “Average filipin intensity Fraction of control” value with CT60 cells [2] was 0.89 ± 0.04 Fraction of control.

Regarding `Nc1c(Sc2ccccc2)cc(Sc2ccccc2)c2c1C(=O)c1ccccc1C2=O` [Compound 1-a-1], in the assay on CT60 cells [1], the “μg FC/μg Protein by GC Fraction of control” value is 1.02 ± 0.03 Fraction of control. The “Average filipin intensity Fraction of control” value with CT60 cells [2] is 0.87 ± 0.04 Fraction of control.

Regarding `COc1ccccc1NN=C1C(=O)N(c2nc(-c3ccc(Cl)cc3)cs2)N=C1C` [Compound 1-a-4], the “μg FC/μg Protein by GC Fraction of control” value in the assay with CT60 cells [1] is listed as 0.87 ± 0.07 Fraction of control. Further, the “Average filipin intensity Fraction of control” value in the assay on CT60 cells [2] is 1.01 ± 0.04 Fraction of control.

Consider `CC1=NN(c2ccccc2)C(=O)C1=NNc1ccccc1C(=O)O` [Compound 1-c-3], for which, in the assay with CT60 cells [2], the “morphological change of the filipin staining pattern” value (“morphological change” below) is “peri-nuclear clusters of LSOs in mutant cells to become more dispersed; also recorded: morphological changes; also recorded: large network of apparently tubular organelles”.

With `CCN(CC)C(=O)CCN1C(=O)C(=Cc2ccc(F)cc2)SC1=S` [Compound 1-c-2], in the assay on CT60 cells [2], the “change in filipin intensity” value is reported as “no significant change” and the “morphological change” value is given as “more compact LSOs; also recorded: morphological changes”.

Regarding `CC(C)(C)c1ccc(C(=O)Nc2ccc(-c3nc4ccccc4o3)c(O)c2)cc1` [Compound 1-b-4], the “effect on filipin staining compared with CT60 cells” value with normal human fibroblasts [4] is “similar”. In addition, in the assay with CT60 cells [2], the “change in filipin intensity” value is “significant increase; also recorded: increased filipin-intensity; also recorded: increased filipin intensity” and the “morphological change” value is “filamentous or tubular staining; also recorded: induced morphological changes; also recorded: bright swirls of filipin staining”.

In the case of `Clc1ccccc1N1N=C(C=Cc2cccs2)CC1c1cccs1` (stereo not shown) [Compound 1-b-2], in the assay with CT60 cells [2], the “change in filipin intensity” value was “increase in filipin intensity; also recorded: increased filipin intensity”.

As for `CCOc1ccc(NN=C2C(=O)N(c3nc(-c4ccccc4)cs3)N=C2c2ccccc2)cc1` [Compound 1-a-3], the “μg FC/μg Protein by GC Fraction of control” value in the assay on CT60 cells [1] is recorded as 1.27 ± 0.07 Fraction of control. The “Average filipin intensity Fraction of control” value in the assay with CT60 cells [2] was 0.95 ± 0.04 Fraction of control.

For the compound `O=C1C(=Cc2ccc(-c3ccc(Cl)c(Cl)c3)o2)C=C(c2ccccc2)N1c1ccccc1O` [Compound 1-a-6], the “μg FC/μg Protein by GC Fraction of control” value with CT60 cells [1] was 1.37 ± 0.01 Fraction of control. Further, in the assay with CT60 cells [2], the “Average filipin intensity Fraction of control” value is recorded as 0.92 ± 0.04 Fraction of control.
